{"source": "patent US10001483B2", "about": "“Methods for the treatment of Kaposi's sarcoma or KSHV-induced lymphoma using immunomodulatory compounds, and uses of biomarkers” (Celgene Corporation, priority 2015, dated 2018)", "key": {"[1]": {"test_system": "lymphocyte subsets", "assay": "Immunologic correlatives: lymphocyte numbers and T cell subsets/activation by immunophenotyping of PBMC", "assay_type": "in vivo, human", "details": "for CD4 and CD8 counts: week 4 and week 8 of therapy", "protocol": "(§1) Aspirin at 81 mg daily was administered as thromboprophylaxis. Assessments were performed every 4 weeks for lymphocyte numbers, Kaposi sarcoma associated herpesvirus (KSHV/HHV8) viral load (VL) and HIV VL and at 8 weeks for T cell subsets and activation by immunophenotyping of peripheral blood mononuclear cells (PBMC). KSHV VL in PBMC and HIV VL in plasma were assayed by quantitative PCR; an ultrasensitive single copy assay was used for HIV VL. Changes from baseline were evaluated using the Wilcoxon signed rank test with P<0.005 considered significant given multiple comparisons. Differences in changes between the HIV infected and uninfected groups were evaluated using the Wilcoxon rank sum test. Median time of the patients on therapy 7 cycles (range 2-12).\n(§2) Laboratory Assays: Lymphocyte subsets were assessed by fluorescent-activated cell sorting using the BlueOcean platform (Beckman Coulter, Carlsbad, Calif.). Plasma HIV-1 […] was evaluated using an ultrasensitive assay whose sensitivity was 1 viral copy per plasma volume. Briefly, a triplex PCR was used using a modification of a previously reported assay with three primers: one spanning the start codon of gag, one in the gag coding region, and one internal control. Samples were tested from 6 mL plasma aliquots, with 12 replicants per sample. KSHV VL in peripheral blood mononuclear cells (PBMC) was assessed by quantitative real-time PCR.\n(§3) Changes in immunologic and virologic parameters were evaluated by a Wilcoxon signed rank test. Exact Wilcoxon rank sum tests were used to compare pharmacokinetic parameters at each time point and differences from baseline. All p-values are two-tailed and reported without adjustment for multiple comparisons. HRQL was analyzed using a using a mixed model repeated measures analysis for FAHI and the marginal homogeneity test for KS-specific questions"}, "[2]": {"test_system": "KSHV K3 and K5", "assay": "K3 and K5 protein expression in BCBL-1 cells after lytic activation, Western blot", "assay_type": "cell-based", "details": "following lytic activation", "protocol": "(§4) Western Blotting: At the end of an incubation period, cells were lysed and nuclear/cytoplasmic extracts were prepared using the NE-PER nuclear extraction kit (Pierce). Samples were subjected to SDS-PAGE (4 to 12% NuPAGE Tris-Bis) (Invitrogen) and transferred to nitrocellulose. The membrane was blocked with 5% w/v nonfat dry milk in 1×TBST (10 mM Tris-Hcl, […], 150 mM NaCl, and 0.05% Tween 20) overnight at 4° C. Blots were incubated with indicated antibodies such as anti-IRF-7 (Santa Cruz), anti-IRF-4 (Cell Signaling), anti-p21 (Cell Signaling), anti-NF-κB p65 (Cell Signaling), anti-NF-κB phospho-p65 (Cell Signaling), IFN-γRa (Cell Signaling), or anti-CRBN (Sigma-Aldrich), and subjected to the appropriate secondary antibody conjugated to alkaline phosphatase (Promega). Bands were visualized with Western Blue stabilized substrate (Promega). Membranes were scanned and images were processed as described.\nFlow Cytometry Analysis and Antibodies: For flow cytometry analysis of MHC-I expression, cells were plated at 400,000 cells/mL and pretreated with immunomodulatory agents as indicated. After twenty-four hours, cells were treated with butyrate at indicated amounts to induce lytic activation and down-regulation of MHC-I. After another twenty-four hours, cells were analyzed on FACS and extracts were prepared as indicated. […]"}, "[3]": {"test_system": "KSHV-infected PEL lines (BC-3, BCBL-1, JSC-1, BC-1)", "assay": "Cell viability (Trypan Blue or CellTiter-Glo) in KSHV-infected PEL cell lines", "assay_type": "cell-based", "details": "among thalidomide, lenalidomide, pomalidomide, FIGS. 2A-2D", "protocol": "In addition, the effect of the immunomodulatory drugs on KSHV down-regulation of MHC-1 during lytic activation was investigated by FACS analysis after pretreating the cells with Immunomodulatory drugs prior to lytic activation with butyrate.\nCell Viability: Cells were plated in triplicate at a density of 30,000-60,000 cells per well in 96-well plates. Cell lines were kept separate on different plates. Cell viability after indicated treatments were assayed by Trypan Blue or by adding the CellTiter-Glo reagent to measure the total ATP in cells cultured with serum-supplemented medium. For the latter, the corresponding luminescence values, correlated to the number of cells, were measured using a luminometer. The values for percentage of living cells were normalized to the control.\n(§5) Cell Culture: The PEL lines JSC-1 (John Hopkins University, Baltimore, Md.), dually infected with Epstein-Barr virus (EBV) and HHV-8, and BC-3 (ATCC, Rockville, Md.) and BCBL-1(National Institute of Health AIDS Research and Reagent Program, Rockville, Md.), harboring KSHV only, and CA-46, an uninfected cancerous B-cell line, were grown in RPMI 1640 medium (Invitrogen, Carlsbad, Calif.) supplemented with 15% fetal-bovine serum (FBS) (Thermo Scientific, Rockford, Ill.) and Pen/Strep glutamine at 37° C. with 5% CO2."}, "[4]": {"test_system": "HIV-1", "assay": "Plasma HIV viral load by ultrasensitive single copy assay", "assay_type": "in vivo", "protocol": "as §1, §2, §3"}, "[5]": {"test_system": "p21", "assay": "Western blot of p21 in PEL cell lines", "assay_type": "cell-based", "details": "10 ii M for 72 hours; FIGS. 6A-6B", "protocol": "as §5\nas §4, with “Membranes were scanned and images were processed as described.” left out"}, "[6]": {"details": "restricted to the 15 HIV positive subjects, paired data for 10-13 patients"}}, "note": "“Also recorded” adds a separate entry of the source."}
{"smiles": "Nc1cccc2c1C(=O)N(C1CCC(=O)NC1=O)C2=O", "note": "(centres unmarked) [pomalidomide, 4-amino-2-(2,6-dioxopiperidin-3-yl)isoindoline-1,3-dione]", "values": [{"measurement": "CD19 B-cells", "setting": "[1]; during therapy", "result": "decline; also recorded: reversible decrease"}, {"measurement": "NK cells", "setting": "[1]; during therapy", "result": "no significant change"}, {"measurement": "Ki67 or PD-1 expression in CD4 or CD8 cells", "setting": "[1]; in vivo", "result": "no significant changes"}, {"measurement": "difference between HIV infected and uninfected patient groups in observed effects (cell number and phenotype)", "setting": "[1]; in vivo", "result": "no significant difference"}, {"measurement": "CD3 (cells/μL) Change to End Therapy (Med, range)", "setting": "[1]; median change from baseline", "result": "+11 cells/μL"}, {"measurement": "CD3 (cells/μL) Change to Week 8 (Med, range)", "setting": "[1]; median change from baseline", "result": "+190 cells/μL"}, {"measurement": "CD4 (cells/μL) Change to End Therapy (Med, range)", "setting": "[1]; median change from baseline", "result": "−46", "unit": "cells/μL"}, {"measurement": "CD4 (cells/μL) Change to Week 8 (Med, range)", "setting": "[1]; median change from baseline", "result": "+40 cells/μL"}, {"measurement": "CD8 (cells/μL) Change to End Therapy (Med, range)", "setting": "[1]; median change from baseline", "result": 104, "unit": "cells/μL"}, {"measurement": "CD8 (cells/μL) Change to Week 8 (Med, range)", "setting": "[1]; median change from baseline", "result": "+142 cells/μL"}, {"measurement": "CD19 (cells/μL) Change to End Therapy (Med, range)", "setting": "[1]; median change from baseline", "result": "−87", "unit": "cells/μL"}, {"measurement": "CD19 (cells/μL) Change to Week 8 (Med, range)", "setting": "[1]; median change from baseline", "result": "−70", "unit": "cells/μL"}, {"measurement": "NK (cells/μL) Change to End Therapy (Med, range)", "setting": "[1]; median change from baseline", "result": 10, "unit": "cells/μL"}, {"measurement": "NK (cells/μL) Change to Week 8 (Med, range)", "setting": "[1]; median change from baseline", "result": "−6", "unit": "cells/μL"}, {"measurement": "CD19 (cells/μL) Change to Week 4 (Med, range)", "setting": "[1]; median change from baseline 141", "result": "−35", "unit": "cells/μL"}, {"measurement": "NK (cells/μL) Change to Week 4 (Med, range)", "setting": "[1]; median change from baseline 178", "result": "+23 cells/μL"}, {"measurement": "CD4 (cells/μL) Change to Week 4 (Med, range)", "setting": "[1]; median change from baseline 440", "result": "+108 cells/μL"}, {"measurement": "CD8 (cells/μL) Change to Week 4 (Med, range)", "setting": "[1]; median change from baseline 500", "result": "+101 cells/μL"}, {"measurement": "CD3 (cells/μL) Change to Week 4 (Med, range)", "setting": "[1]; median change from baseline 1184", "result": "+275 cells/μL"}, {"measurement": "CD4 Subsets 38+ DR+: Absolute Change in % at Week 8 (med, range)", "setting": "[1]; median, baseline 2.5 %", "result": "+2%"}, {"measurement": "CD4 Subsets RO− 27− (E): Absolute Change in % at Week 8 (med, range)", "setting": "[1]; median, baseline 3.3 %", "result": "−1.5", "unit": "%"}, {"measurement": "CD4 Subsets 57+: Absolute Change in % at Week 8 (med, range)", "setting": "[1]; median, baseline 6.3 %", "result": "−1.34", "unit": "%"}, {"measurement": "CD8 Subsets 38+ DR+: Absolute Change in % at Week 8 (med, range)", "setting": "[1]; median, baseline 8.0 %", "result": "+8.5%"}, {"measurement": "CD4 Subsets HLA DR+: Absolute Change in % at Week 8 (med, range)", "setting": "[1]; median, baseline 8.9 %", "result": "+8.3%"}, {"measurement": "CD4 Subsets RO+ 27− (EM): Absolute Change in % at Week 8 (med, range)", "setting": "[1]; median, baseline 16.7 %", "result": "+1.7%"}, {"measurement": "CD8 Subsets RO+ 27+ (CM): Absolute Change in % at Week 8 (med, range)", "setting": "[1]; median, baseline 17.1 %", "result": "+8.1%"}, {"measurement": "CD8 Subsets RO+ 27− (EM): Absolute Change in % at Week 8 (med, range)", "setting": "[1]; median, baseline 18.4 %", "result": "+1.0%"}, {"measurement": "CD8 Subsets HLA DR+: Absolute Change in % at Week 8 (med, range)", "setting": "[1]; median, baseline 19.6 %", "result": "+11.6%"}, {"measurement": "CD8 Subsets RO− 27+ (N): Absolute Change in % at Week 8 (med, range)", "setting": "[1]; median, baseline 21.0 %", "result": "−5.1", "unit": "%"}, {"measurement": "CD8 Subsets 57+: Absolute Change in % at Week 8 (med, range)", "setting": "[1]; median, baseline 30.8 %", "result": "−11.0", "unit": "%"}, {"measurement": "CD8 Subsets RO− 27− (E): Absolute Change in % at Week 8 (med, range)", "setting": "[1]; median, baseline 31.8 %", "result": "−6.1", "unit": "%"}, {"measurement": "CD4 Subsets RO− 27+ (N): Absolute Change in % at Week 8 (med, range)", "setting": "[1]; median, baseline 32.6 %", "result": "−6.6", "unit": "%"}, {"measurement": "CD8 Subsets 38+: Absolute Change in % at Week 8 (med, range)", "setting": "[1]; median, baseline 33.4 %", "result": "+19.9%"}, {"measurement": "CD4 Subsets 38+: Absolute Change in % at Week 8 (med, range)", "setting": "[1]; median, baseline 34.5 %", "result": "+4.3%"}, {"measurement": "CD4 Subsets RO+ 27+ (CM): Absolute Change in % at Week 8 (med, range)", "setting": "[1]; median, baseline 41.9 %", "result": "+6.4%"}, {"measurement": "CD4 and CD8 counts", "setting": "[1]", "result": "Significant increases"}, {"measurement": "CD4 and CD8 counts", "setting": "[1]; listed as Pomalidomide", "result": "significant increases"}, {"measurement": "activation (CD38+, HLADR+ and DR+/38+) of CD4 and CD8 T-cells", "setting": "[1]; week 8", "result": "significant increases"}, {"measurement": "senescence (CD57+) of CD4 and CD8 T-cells", "setting": "[1]; week 8", "result": "decreases"}, {"measurement": "protein expression level of KSHV K3 or K5", "setting": "[2]; FIG. 8", "result": "appears not to prevent K3 and K5 expression"}, {"measurement": "protein expression level of KSHV K3 or K5", "setting": "[2]; FIG. 8, listed as Pomalidomide", "result": "did not significantly change the protein expression level"}, {"measurement": "cell viability / PEL proliferation", "setting": "[3]", "result": "most effective one at killing KSHV infected cells"}, {"measurement": "HIV VL", "setting": "[4]; plasma, ultrasensitive single copy assay", "result": "no significant change"}, {"measurement": "Plasma HIV VL (copies/mL) Change to End Therapy (Med, range)", "setting": "[4]; [6]", "result": "−0.5", "unit": "copies/mL"}, {"measurement": "Plasma HIV VL (copies/mL) Change to Week 8 (Med, range)", "setting": "[4]; [6]", "result": "+0.75 copies/mL"}, {"measurement": "Plasma HIV VL (copies/mL) Change to Week 4 (Med, range)", "setting": "[4]; restricted to the 15 HIV positive subjects, paired data for 10-13 patients, baseline 1.5", "result": "+0.3 copies/mL"}, {"measurement": "p21 levels", "setting": "[5]", "result": "most effective in up-regulating p21"}]}
